Entries after “also recorded” stand apart in the source; their conditions may differ. One block for each compound: values may come before it. Peptide text beside a SMILES is read from it. * marks the point of attachment. Tos = Cc1ccc(S(=O)(=O)*)cc1; CH2Cl = ClC*
Legend:
glioma cell lines = settings: inhibition of thrombin activity and blocking PAR1 activation; Shavit-Stein et al. 2018; cited from earlier work
diabetic rats = settings: STZ-induced diabetes; Shavit-Stein et al. PLoS One 2019; cited from earlier work
[1] = test system: STZ-induced diabetic C57BL/6 mice; assay: Retinal function by ERG in STZ-induced diabetic mice; type: in vivo, mouse
Experimental: Diabetes induction: Diabetes was induced in mice at age of 8 weeks by a single intraperitoneal injection of 150 mg/Kg STZ (Sigma-Aldrich). Blood glucose concentration was measured from the tail vein using Xpress-i glucometer (Nova Biomedical). Hyperglycemia was defined as blood glucose >[…] [Shavit-Stein et al. (2019) PLoS One 14, e0219453].
Electroretinogram (ERG): Mice were dark-adapted for 16 hours. ERG responses to light flashes at 5 increasing intensities (0.023, 0.249, 2.44, 7.8 and 23.5 cd-s/m^2) are recorded from both eyes simultaneously. Light-adapted ERG is similarly performed following 5 minutes light adaptation [Edelshtain et al. (2019) Algal Research 43, 101607].
C57BL/6 mice received either sham (PBS, n=5) or PARIN5 (100 nM in PBS, n=7) treatment for 7 days, starting at three days after diabetes induction by STZ injection. Retinal function was determined by ERG. Treatment included intraperitoneal (IP) injection (0.5 µl/gram, once a day) and eye drops (10 µl/eye, once a day).
In further experiments, STZ-induced diabetic were treated with eye drops, 100 nM PARIN5 in PBS (10 µl/eye, once a day), for 5 weeks. Non-diabetic mice and diabetic non-treated mice served as control.

ALS animal model SOD-1 = settings: SOD-1 ALS animal model; cited from earlier work

Structure (SMILES): N=C(N)c1ccc(CC(NC(=O)CNS(=O)(=O)c2ccc3ccccc3c2)C(=O)N2CCCCC2)cc1 (racemic) [NAPAP, Nα-(2-naphthyl-sulphonyl-glycyl)-DL-p-amidinophenylalanyl-piperidine]
Growth of glioma cell lines (glioma cell lines): significantly inhibits their growth
Nerve conduction velocity in diabetic rats (diabetic rats): prevent the decreased nerve conduction velocity

Retinal function by ERG (b-wave) after 7-day treatment ([1]; 100 nM in PBS, IP injection 0.5 µl/gram plus eye drops 10 µl/eye, once a day, 7 days, from three days after STZ, versus sham PBS, FIG. 5): preserved mouse retinal function
Structure (SMILES): Cc1ccc(S(=O)(=O)N[C@H](C(=O)N[C@@H](CC(C)C)C(=O)N[C@@H](CC(=O)O)C(=O)N2CCC[C@H]2C(=O)N[C@@H](CCCNC(=N)N)C(=O)CCl)[C@@H](C)O)cc1 [PARIN5, ^37TLDPR^41-CMK] (Tos-TLDPR-CH2Cl)
Retinal function by ERG b-wave after 5 weeks of daily eye drops, versus control non-diabetic mice ([1]; 100 nM in PBS eye drops, 10 µl/eye once a day, 5 weeks, measured 2 and 5 weeks after STZ, all p>0.3, FIG. 6): no significant differences; also recorded: protected the mouse retinal function

Structure (SMILES): CC(C)c1ccc(Cn2ccc3c4c(N)nc(NC5CC5)nc4ccc32)cc1.Cl.Cl [SCH79797, N3..Cyclopropyl-7..[[4..(1.. methylethyl)phenyl]methyl]-7H-pyrrolo[3,2-f]quinazoline-1,3-diamine dihydrochloride]
Life span of ALS model animals (ALS animal model SOD-1): increase the life span of these ALS model animals significantly

Structure (SMILES): Cc1ccc(S(=O)(=O)N[C@@H](CCCCN)C(=O)CCl)cc1 [TLCK, N-alpha-tosyl-L-lysine chloromethyl ketone]
Life span of ALS model animals (ALS animal model SOD-1): increase the life span of these ALS model animals significantly
